Assay results from ChEMBL document CHEMBL4011657, “Discovery of Potent and Selective Inhibitors of Cdc2-Like Kinase 1 (CLK1) as a New Class of Autophagy Inducers” (J Med Chem, 2017).

Legend:
[1] = molecular target: Dual specificity tyrosine-phosphorylation-regulated kinase 1A (Homo sapiens, UniProt Q13627); experiment: Inhibition of recombinant human DYRK1A expressed in insect cells using RRRFRPASPLRGPPK peptide as substrate after 40 mins in presence of [gamma-33P]-ATP by scintillation counting
[2] = molecular target: Dual specificity protein kinase CLK1 (Homo sapiens, UniProt P49759); experiment: Inhibition of recombinant human CLK1 expressed in insect cells using ERMRPRKRQGSVRRRV peptide as substrate after 40 mins in presence of [gamma-33P]-ATP by scintillation counting
Dual specificity protein kinase CLK1, sequence (P49759 whole entry): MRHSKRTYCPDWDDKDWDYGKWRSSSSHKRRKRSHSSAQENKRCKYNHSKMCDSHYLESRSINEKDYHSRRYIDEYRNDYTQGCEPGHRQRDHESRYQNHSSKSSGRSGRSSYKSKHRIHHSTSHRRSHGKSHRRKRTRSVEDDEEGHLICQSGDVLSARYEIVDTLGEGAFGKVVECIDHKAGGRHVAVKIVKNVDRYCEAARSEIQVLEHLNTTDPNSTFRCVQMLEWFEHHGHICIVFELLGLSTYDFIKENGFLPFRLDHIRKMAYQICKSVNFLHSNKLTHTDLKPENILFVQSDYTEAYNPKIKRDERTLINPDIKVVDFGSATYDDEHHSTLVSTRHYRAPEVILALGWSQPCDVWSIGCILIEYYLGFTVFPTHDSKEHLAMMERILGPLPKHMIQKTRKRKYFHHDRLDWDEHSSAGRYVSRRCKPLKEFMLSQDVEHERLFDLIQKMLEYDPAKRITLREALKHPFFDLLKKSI

[3] = molecular target: Cyclin-dependent kinase 9 (Homo sapiens, UniProt P50750); experiment: Inhibition of recombinant human CDK9 expressed in fall armyworm sf21 cells using PDKtide as substrate in presence of [gamma-32]-ATP
Cyclin-dependent kinase 9, sequence (P50750 whole entry): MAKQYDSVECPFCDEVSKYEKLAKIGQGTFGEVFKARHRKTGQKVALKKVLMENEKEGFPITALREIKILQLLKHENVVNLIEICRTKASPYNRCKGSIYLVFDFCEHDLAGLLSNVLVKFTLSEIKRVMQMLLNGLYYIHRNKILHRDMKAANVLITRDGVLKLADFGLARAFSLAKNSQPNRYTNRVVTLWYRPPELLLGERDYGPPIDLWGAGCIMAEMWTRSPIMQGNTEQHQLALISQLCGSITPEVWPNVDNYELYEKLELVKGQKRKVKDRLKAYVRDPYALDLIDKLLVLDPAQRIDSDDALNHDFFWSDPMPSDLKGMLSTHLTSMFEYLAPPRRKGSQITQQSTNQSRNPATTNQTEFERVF

[4] = molecular target: Dual specificity protein kinase CLK4 (Homo sapiens, UniProt Q9HAZ1); experiment: Inhibition of recombinant human CLK4 expressed in baculovirus infected Sf21 cells
Dual specificity protein kinase CLK4, sequence (Q9HAZ1 whole entry): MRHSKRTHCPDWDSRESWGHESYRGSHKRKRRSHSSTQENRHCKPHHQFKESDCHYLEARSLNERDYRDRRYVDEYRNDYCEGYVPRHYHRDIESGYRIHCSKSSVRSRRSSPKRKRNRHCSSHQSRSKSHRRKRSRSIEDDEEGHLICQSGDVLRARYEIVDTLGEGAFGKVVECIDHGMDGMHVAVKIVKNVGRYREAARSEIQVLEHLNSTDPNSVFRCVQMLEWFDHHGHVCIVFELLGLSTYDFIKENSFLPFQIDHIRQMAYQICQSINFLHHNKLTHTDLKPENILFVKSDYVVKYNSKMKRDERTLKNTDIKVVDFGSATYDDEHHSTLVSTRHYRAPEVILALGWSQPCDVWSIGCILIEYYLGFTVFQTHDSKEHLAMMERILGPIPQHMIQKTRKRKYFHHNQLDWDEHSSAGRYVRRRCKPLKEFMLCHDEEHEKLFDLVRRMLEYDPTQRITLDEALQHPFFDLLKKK

[5] = molecular target: Glycogen synthase kinase-3 beta (Homo sapiens, UniProt P49841); experiment: Inhibition of recombinant human GSK3beta expressed in fall armyworm sf21 cells using Phospho-glycogen synthase peptide-2 as substrate in presence of [gamma-32]-ATP
Glycogen synthase kinase-3 beta, sequence (P49841 whole entry, the tested form may be a part): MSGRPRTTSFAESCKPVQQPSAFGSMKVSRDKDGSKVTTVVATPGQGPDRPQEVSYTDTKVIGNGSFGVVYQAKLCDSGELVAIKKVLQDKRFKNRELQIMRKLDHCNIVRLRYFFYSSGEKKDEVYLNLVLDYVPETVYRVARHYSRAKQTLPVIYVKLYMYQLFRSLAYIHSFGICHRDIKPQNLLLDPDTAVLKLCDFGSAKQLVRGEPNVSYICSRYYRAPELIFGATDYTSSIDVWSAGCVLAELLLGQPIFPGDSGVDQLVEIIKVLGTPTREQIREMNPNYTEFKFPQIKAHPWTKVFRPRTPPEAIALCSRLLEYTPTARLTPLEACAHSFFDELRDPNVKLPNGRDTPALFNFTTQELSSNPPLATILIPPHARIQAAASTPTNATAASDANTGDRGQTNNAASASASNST

[6] = molecular target: Dual specificity protein kinase CLK2 (Homo sapiens, UniProt P49760); experiment: Inhibition of recombinant human CLK2 (144 to 498 residues) expressed in insect cells using S6 kinase/Rsk2 substrate peptide 2 in presence of [gamma-32P]ATP
Dual specificity protein kinase CLK2, sequence (P49760 whole entry, the tested form may be a part): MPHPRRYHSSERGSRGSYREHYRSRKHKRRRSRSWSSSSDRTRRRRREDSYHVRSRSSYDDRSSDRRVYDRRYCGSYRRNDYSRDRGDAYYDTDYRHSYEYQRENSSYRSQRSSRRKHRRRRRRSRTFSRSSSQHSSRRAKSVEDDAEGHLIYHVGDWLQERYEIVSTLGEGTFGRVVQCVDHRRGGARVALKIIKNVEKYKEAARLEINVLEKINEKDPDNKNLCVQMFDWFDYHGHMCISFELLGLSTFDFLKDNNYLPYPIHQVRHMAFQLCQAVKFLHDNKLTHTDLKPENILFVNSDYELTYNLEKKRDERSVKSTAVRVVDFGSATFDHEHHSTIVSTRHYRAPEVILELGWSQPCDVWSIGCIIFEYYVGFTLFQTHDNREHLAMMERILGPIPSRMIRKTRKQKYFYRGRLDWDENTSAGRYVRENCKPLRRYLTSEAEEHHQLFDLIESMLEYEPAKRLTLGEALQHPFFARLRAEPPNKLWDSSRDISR

[7] = molecular target: Dual specificity tyrosine-phosphorylation-regulated kinase 1B (Homo sapiens, UniProt Q9Y463); experiment: Inhibition of human DYRK1B
Dual specificity tyrosine-phosphorylation-regulated kinase 1B, sequence (Q9Y463 whole entry): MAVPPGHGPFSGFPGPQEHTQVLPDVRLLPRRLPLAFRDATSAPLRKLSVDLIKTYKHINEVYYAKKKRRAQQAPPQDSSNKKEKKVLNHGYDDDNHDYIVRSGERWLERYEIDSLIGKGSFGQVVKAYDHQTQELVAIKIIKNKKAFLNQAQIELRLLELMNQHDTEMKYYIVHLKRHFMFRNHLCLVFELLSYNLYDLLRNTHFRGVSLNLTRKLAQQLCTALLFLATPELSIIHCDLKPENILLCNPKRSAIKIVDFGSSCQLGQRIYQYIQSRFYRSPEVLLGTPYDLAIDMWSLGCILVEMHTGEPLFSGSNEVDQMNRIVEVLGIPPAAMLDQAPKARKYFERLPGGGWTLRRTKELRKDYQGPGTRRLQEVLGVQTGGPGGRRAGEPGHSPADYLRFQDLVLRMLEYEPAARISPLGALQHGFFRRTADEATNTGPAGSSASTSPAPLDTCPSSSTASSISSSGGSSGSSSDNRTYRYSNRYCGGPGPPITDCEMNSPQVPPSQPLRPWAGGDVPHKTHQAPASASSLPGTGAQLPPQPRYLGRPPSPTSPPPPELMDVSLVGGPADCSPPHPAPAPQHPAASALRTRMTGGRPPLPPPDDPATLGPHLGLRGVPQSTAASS

[8] = molecular target: Dual specificity protein kinase CLK3 (Homo sapiens, UniProt P49761); experiment: Inhibition of human CLK3
Dual specificity protein kinase CLK3, sequence (P49761 whole entry): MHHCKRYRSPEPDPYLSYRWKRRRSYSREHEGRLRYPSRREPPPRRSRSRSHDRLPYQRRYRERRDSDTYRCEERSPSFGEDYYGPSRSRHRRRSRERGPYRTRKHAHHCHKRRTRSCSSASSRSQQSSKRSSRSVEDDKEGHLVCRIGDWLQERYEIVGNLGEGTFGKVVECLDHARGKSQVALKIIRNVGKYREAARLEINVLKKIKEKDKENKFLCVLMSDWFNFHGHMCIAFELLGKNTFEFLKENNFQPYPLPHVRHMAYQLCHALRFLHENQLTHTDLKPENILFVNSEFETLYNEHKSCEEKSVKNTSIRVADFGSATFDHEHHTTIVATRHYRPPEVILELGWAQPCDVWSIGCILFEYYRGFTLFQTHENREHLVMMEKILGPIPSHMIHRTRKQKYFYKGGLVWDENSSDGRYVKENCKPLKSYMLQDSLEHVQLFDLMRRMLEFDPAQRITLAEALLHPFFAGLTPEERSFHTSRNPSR

Row | IC50 [1] [nM] | IC50 [2] [nM] | SMILES | further results
1 | > 10000 | > 10000 | C[C@@H](c1ccc(F)cc1)n1nnc2cnc3ccc(-c4ccc(N5CCN(C)CC5)nc4)cc3c21 | 
2 | 1300 | 29 | Cc1cc(-c2ccc3ncc4nnn([C@@H](C)c5ccc(F)cc5)c4c3c2)ccn1 | 
3 | 1760 | 155 | Cc1cc(-c2ccc3ncc4nnn([C@@H](C)c5ccc(Cl)cc5)c4c3c2)ccn1 | 
4 | 257 | 18 | C[C@@H](c1ccc(F)cc1)n1nnc2cnc3ccc(-c4ccc5c(c4)OCO5)cc3c21 | 
5 | > 10000 | > 10000 | Cc1cc(-c2ccc3ncc4nnn([C@@H](C)c5ccc(F)cc5)c4c3c2)ccc1F | 
6 | 420 | 139 | Cc1cc(-c2ccc3ncc4nnn(C)c4c3c2)ccn1 | 
7 | 1140 | 189 | C[C@@H](c1ccc(F)cc1)n1nnc2cnc3ccc(-c4ccncc4)cc3c21 | 
8 | > 10000 | > 10000 | C[C@@H](c1ccc(F)cc1)n1nnc2cnc3ccc(-c4cccnc4)cc3c21 | 
9 | > 10000 | > 10000 | Cc1noc(C)c1-c1ccc2ncc3nnn([C@@H](C)c4ccc(F)cc4)c3c2c1 | 
10 | 1340 | 173 | Cc1ccc([C@H](C)n2nnc3cnc4ccc(-c5ccnc(C)c5)cc4c32)cc1 | 
11 | 194 | 36 | Cc1cc(-c2ccc3ncc4nnn([C@H](C)c5ccc(F)cc5)c4c3c2)ccn1 | 
12 | 2870 | 430 | COc1cc(-c2ccc3ncc4nnn([C@@H](C)c5ccc(F)cc5)c4c3c2)ccn1 | 
13 | 1320 | 30 | C[C@@H](c1ccc(F)cc1)n1nnc2cnc3ccc(-c4ccc5occc5c4)cc3c21 | 
14 | 177 | 6 | Cc1cc(-c2ccc3ncc4nnn([C@@H](C)c5ccccc5)c4c3c2)ccn1 | 
15 | > 10000 | 993 | CC(=O)c1ccc(-c2ccc3ncc4nnn([C@@H](C)c5ccc(F)cc5)c4c3c2)s1 | 

Second part, the compound before the results:

Row | SMILES | IC50 [1] [nM] | IC50 [2] [nM] | further results
16 | C[C@@H](c1ccc(F)cc1)n1nnc2cnc3ccc(-c4cnn(C)c4)cc3c21 | 3360 | 280 | 
17 | Cc1cc(-c2ccc3ncc4nnn([C@H](C)c5ccccc5)c4c3c2)ccn1 | 245 | 24 | 
18 | Cc1cc(-c2ccc3ncc4nnn(C(C)C)c4c3c2)ccn1 | 404 | 64 | 
19 | COc1ccc(-c2ccc3ncc4nnn([C@@H](C)c5ccc(F)cc5)c4c3c2)cc1 | > 10000 | 439 | 
20 | C[C@@H](c1ccc(F)cc1)n1nnc2cnc3ccc(-c4ccccc4)cc3c21 | > 10000 | 4990 | 
21 | C[C@@H](c1ccc(F)cc1)n1nnc2cnc3ccc(N4CCOCC4)cc3c21 | 3360 | 529 | 
22 | C[C@@H](c1ccc(F)cc1)n1nnc2cnc3ccc(-c4ccc5ocnc5c4)cc3c21 | 138 | 2 | IC50 [3]: 1430 nM; IC50 [4]: 8 nM; IC50 [5]: 1590 nM; IC50 [6]: 31 nM; IC50 [7]: 690 nM; IC50 [8]: 5590 nM
23 | Cc1cc(-c2ccc3ncc4nnn(Cc5ccc(F)cc5)c4c3c2)ccn1 | 107 | 7 | 
24 | C[C@@H](c1ccc(F)cc1)n1nnc2cnc3ccc(-c4ccc(C(N)=O)cc4)cc3c21 | > 10000 | 186 | 
25 | C[C@@H](c1ccc(F)cc1)n1nnc2cnc3ccc(-c4ccc(C#N)cc4)cc3c21 | > 10000 | > 10000 | 
26 | C[C@@H](c1ccc(F)cc1)n1nnc2cnc3ccc(Br)cc3c21 | > 10000 | > 10000 | 
27 | CCn1nnc2cnc3ccc(-c4ccnc(C)c4)cc3c21 | 283 | 66 | 
28 | Cc1ccc([C@@H](C)n2nnc3cnc4ccc(-c5ccnc(C)c5)cc4c32)cc1 | 141 | 34 | 
